Results from patent US12415807B2, “PKC inhibitor solid state forms” (MingSight Pharmaceuticals, Inc., priority 2017, dated 2025).

Legend:
Human PKC delta = Human PKC delta (Homo sapiens, UniProt Q05655); assay: In vitro PKC inhibition, PKC delta; type: biochemical
From the text: (§1) The methods for these determinations have been described (Grant, et al. 2010, Eur. J. Pharmacol. 627:16-25).

Interleukin-8 release = assay: Interleukin-8 release; type: cell-based
From the text: as §1

pSHP2 (PKCβ cell assay) = assay: pSHP2 (PKCβ cell assay); type: cell-based
From the text: as §1

Chain of Human PKC delta (Q05655 whole entry): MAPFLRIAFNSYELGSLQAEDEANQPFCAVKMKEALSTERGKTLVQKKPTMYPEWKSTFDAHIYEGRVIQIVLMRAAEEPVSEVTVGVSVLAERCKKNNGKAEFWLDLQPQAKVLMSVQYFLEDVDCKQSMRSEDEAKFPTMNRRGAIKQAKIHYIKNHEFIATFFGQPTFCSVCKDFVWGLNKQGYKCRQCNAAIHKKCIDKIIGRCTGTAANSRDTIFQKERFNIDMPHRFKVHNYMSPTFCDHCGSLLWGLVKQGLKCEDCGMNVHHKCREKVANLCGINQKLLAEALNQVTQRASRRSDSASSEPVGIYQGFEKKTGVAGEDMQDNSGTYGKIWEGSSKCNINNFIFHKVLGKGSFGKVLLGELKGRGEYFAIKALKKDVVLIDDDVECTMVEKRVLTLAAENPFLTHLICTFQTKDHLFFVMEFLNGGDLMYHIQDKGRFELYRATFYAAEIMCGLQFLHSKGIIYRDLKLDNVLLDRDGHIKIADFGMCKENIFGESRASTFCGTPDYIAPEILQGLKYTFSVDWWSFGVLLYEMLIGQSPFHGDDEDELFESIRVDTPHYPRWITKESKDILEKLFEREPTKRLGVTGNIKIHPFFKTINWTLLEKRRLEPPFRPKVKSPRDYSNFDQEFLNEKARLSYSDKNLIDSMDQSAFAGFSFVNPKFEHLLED

Inhibition of PKC delta (in words) (Human PKC delta): does not significantly inhibit
IC50 (Interleukin-8 release): 39 nM
IC50 (pSHP2 (PKCβ cell assay)): 9.8 nM
Compound: Cc1ncc(F)c(Nc2n[nH]c3c2CN(C(=O)N2C[C@@H](C)N(CC4CCOCC4)C[C@@H]2C)C3(C)C)n1 [Compound 1, 5-{[(2S,5R)-2,5-dimethyl-4-(tetrahydro-2H-pyran-4-ylmethyl)piperazin-1-yl]carbonyl}-N-(5-fluoro-2-methylpyrimidin-4-yl)-6,6-dimethyl-1,4,5,6-tetrahydropyrrolo[3,4-c]pyrazol-3-amine]
